{
  "source": "patent US20090203636A1",
  "about": "“Prevention and Treatment of Cancer and Other Diseases” (priority 2006, published 2009)",
  "key": {"U-2 OS cells [1]": {"system": "U-2 OS cells", "assay": "Telomere length (flow cytometry, PNA probe), cell cycle distribution (PI), apoptosis and TRAP status in U-2 OS cells", "format": "cell-based, human", "description": "(§1) The ALT cell lines were treated with therapeutic concentrations of AZT, to determine if slippage telomeric DNA synthesis could be inhibited by AZT-TP, and thereby induce telomere shortening. Telomere length in AZT treated and untreated cell lines was measured by flow cytometry with a telomere specific peptide nucleic acid (PNA) probe. To determine cell cycle distribution, cells were stained with propidium iodide (PI).\nRate of DNA synthesis was determined by incorporation of 5-bromodeoxyuridine (BdU). […] It is important to note that changes in cell cycle distribution, DNA synthesis and telomere length were rapid and could be detected after only 10 days of AZT treatment.\nTelomere length in untreated and GCV treated cells was measured by flow cytometry with a telomere-specific PNA probe as described above.\nTo determine cell cycle distribution, cells were stained with propidium iodide (PI).\n(§2) Both telomerase positive (Hela) telomerase negative (U-2 OS) cell lines were used. Appropriate assays were performed to detect and confirm telomerase/L1RT specific activity in these cells.\n(§3) The U-2 OS (osteosarcoma) and HeLa (uterine cervix) cell lines used in this study were obtained from American Type Culture Collection (Rockville, Md.). Cells were cultured in D-MEM media supplemented with 10% fetal calf serum at 37° C. in a humidified atmosphere of 5% CO2. For treatment of the cells with ACV, the media was supplemented with 3 μM of acyclovir (acyclovir, TEVA Pharm. Ind. Ltd, Israel). For treatment of the cells with GCV, the media was supplemented with 1.5 μM of GCV (Cymevene, Hoffman-La Roche). For treatment of the cells with PCV, the media was supplemented with 1.5 μM of PCV (penciclovir, Merck & Co.).\n(§4) Real time TRAP assay was performed as described (Wege et al., SYBR Green real-time telomeric repeat amplification protocol for the rapid quantification of telomerase activity. Nucleic Acids Res. 2003; 31(2):E3-3). For telomere length measurement by flow cytometry, cells were stained with telomere specific FITC conjugated (C3TA2)3 PNA (Applied Biosystems) probe and contrastained with 0.06 μg/ml PI as described by Rufer, N., Dragowska, W., Thornbury G., Roosnek, E., Lansdorp P. M. Telomere length dynamics in human lymphocyte subpopulations […]. Nat. Biotechnol. 16, 743-747 (1998)).\n(a) In vitro arrays: U-2 OS cells were incubated with 0.2 μM of AZT for 22 days. Actively growing clones were analyzed by flow-FISH with telomere specific PNA probe, and in real time TRAP assay using HeLa cells as positive control. Isolated actively growing clones were different from parental cells in DNA content and telomere length.\n(§5) Telomere length in SN 1 or SN 2 treated and untreated cell lines was measured by flow cytometry with a telomere—specific peptide nucleic acid PNA) probe. To determine cell cycle distribution, cells were stained with propidium iodide (PI).\n(§6) The U-2 OS (osteosarcoma) and Hela (uterine cervix) cell lines used in this study were obtained from American Type Culture Collection (Rockville, Md.). Cells were cultured in D-MEM media supplemented with 10% fetal calf serum at 37° C. in a humidified atmosphere of 5% CO2. For treatment of the cells with SN 1 or SN 2, the media was supplemented with 1.5 μM of SN1 or SN2.\n(§7) For telomere length measurement by flow cytometry, cells were stained with telomere specific FITC conjugated (C3TA2)3 PNA (Applied Biosystems) probe and contra-stained with 0.06 μg/ml PI as described by Rufer, N., Dragowska, W., Thornbury G., Roosnek, E., Lansdorp P. M. Telomere length dynamics in human lymphocyte subpopulations […]. Nat. Biotechnol. 16, 743-747 (1998))."}, "HeLa cells [2]": {"system": "HeLa cells", "assay": "Telomere length (flow cytometry, PNA probe), cell cycle distribution (PI) and apoptosis in HeLa cells", "format": "cell-based, human", "description": "as §1\n(§8) The origin of the cell lines are uterine cervix (HeLa) and epithelial ovarian (NuTu-19). Cells were cultured in D-MEM media supplemented with 10% fetal calf serum at 37° C. in a humidified atmosphere of 5% CO2. For treatment of the cells with GCV, the media was supplemented with 1.5 μM of GCV (Cymevene, Hoffman-La Roche). For treatment of the cells with ACV, the media was supplemented with 3 μM of Acyclovir (Acyclovir, TEVA Pharm. Ind. Id. Israel).\nas §4, §2, §3, §5, §6, §7"}, "[3]": {"assay": "MTT-microtiter plate tetrazolium cytotoxicity assay", "format": "cell-based", "conditions": "dog, MDCK (ATCC) cells; continuous exposure for 2 days; read-out: IC50 cytotoxic doses", "description": "(a) Cytotoxcity Assay: The cytotoxic effects of compounds of the invention was determined using pharmacological models that are well known to the art, i.e., MTT-microtiter plate tetrazolium cytotoxicity Assay. Specifically, cytotoxicity assays were performed using the MIT assay procedure described in Mosmann, 1983, Rapid calorimetric assay for cellular growth and survival: application to proliferation and cytotoxicity assays, J Immunol Methods, 65:55-63. Briefly, the assay was performed by using 96-well microtiter plates plated at 10^4 MDCK (ATCC) cells/well, in […] of growth medium.\nFor determination of IC50 cells were exposed continuously for 2 days to varying concentrations of SN1, SN2, SN3, SN4 and valine ester of SN1. MIT assays were performed at the end of the 2nd day. […] All assays were performed at least 2 times in 3 replicate wells."}, "NuTu-19 cells": {"system": "NuTu-19 cells", "assay": "Telomere length (flow cytometry, PNA probe), cell cycle distribution (PI) and apoptosis in NuTu-19 cells", "format": "cell-based", "conditions": "GCV 1.5 μM or ACV 3.0 μM, 14 days (Example 2b)", "description": "as §8, §4"}, "U-2 OS cells [4]": {"system": "U-2 OS cells", "conditions": "therapeutic concentrations, 14 days; reported in WO 2005/069880; cited from earlier work"}, "[5]": {"system": "Saos-2 osteosarcoma cells", "conditions": "therapeutic concentrations, 14 days; reported in WO 2005/069880; cited from earlier work"}, "HeLa cells [6]": {"system": "HeLa cells", "format": "in vivo", "conditions": "Valcyte in drinking water (1 mg/ml) from day 0", "description": "For in vivo assay, appropriate host, e.g., nude (nu/nu) mice of about 5-7 weeks old are obtained and maintained in pathogen-free conditions. Approximately, 1×10^6 HeLa cells (and/or U-2 OS cells) contained in 200 μl of serum-free media are delivered to all animals, briefly anaesthetize with Metofane, by subcutaneous (s.c.) injection in flank. Then the mice are divided into experimental group and control group. Appropriate concentrations of compounds of the formulas (I) to (VI), ACV, PCV and/or GCV are used for tumor growth progression or regression assays.\nIn one embodiment, impairment of s.c. tumor growth or time to progression rather than decrease in size of an established tumor (regression) is assessed. In this embodiment, starting from the day zero, mice in the experimental group receive GCV in drinking water ad libitum. Concentration of GCV in water can be 2 mg/ml. Fresh solution of GCV is supplied every 3 days. Mice in the control group receive only drinking water. Tumors are measured every 2-3 days. Mice are sacrificed when tumors exceed 1 cm^3. Tumor volume is calculated with formula 4/3πr^3, where r is the radius of the tumor.\nExperimental group received valganciclovir in drinking water from day 0. Human cancer HeLa cell culture was purchased from ATCC. In all, 12 CD1/-nu and 12 NMRiI/-nu nude mice were purchased from Charles River Laboratories, Charles River Deutschland GmbH. These nude mice were injected s.c. with 3×10^5 Hela cells. Mice in the experimental groups (6 mice per strain) were exposed to Valcyte® (val-ganciclovir) in drinking water (1 mg/ml) from day 0.\n(a) In vivo assays using Valganciclovir and zidovudine (AZT) combination: Human cancer HeLa cell culture was purchased from ATCC. A total of 24 CD1/-nu nude mice were purchased from Charles River laboratories, Charles River Deutschland GmbH. These mice were injected s.c. with 1×10^5 HeLa cells. The tumor volumes were determined by measurement of maximal and minimal diameters of the tumor. The calculations were conducted using the formula V=4/3 πRmax×Rmin^2, where Rmax−½ of maximal diameter of the tumor, and Rmin−½ of minimal diameter of the tumor. nude mice were injected s.c. with 1×10^5 Hela cells.\nOf the 12 treated mice, after 20 days of double cocktail treatment, six mice were administered with a triple cocktail (Valcyte®+Retrovir®+ddI at the dose of 1 mg/ml each in drinking water for a further period 21 days (see Example 7 below) and only six mice continued to receive the double cocktail for another 21 days at which time tumor measurements were taken for all mice injected with HeLa cells. Of the remaining 12 mice injected with HeLa cells but untreated with any cocktail or anticancer agent thus far, six were maintained as controls for the rest of the duration of the experiment. The other six were treated with Xeloda® 67 days after the injection of HeLa cells (see Example 7 below).\nAs mentioned in Example 5 above, a total of six mice, after 20 days of double cocktail treatment, were administered with a triple cocktail (Valcyte®+Retrovir®+ddI at the dose of 1 mg/ml each in drinking water) for a further period 21 days. After 14 days of triple cocktail treatment, Xeloda® at a concentration 1 mg/ml was added to the triple cocktail. Six mice previously untreated with any drug for 67 days after the injection of HeLa cells were treated with Xeloda® at a concentration 1 mg/ml in drinking water. Tumor measurements were taken in all mice 75 days following the injection of HeLa cells."}, "[7]": {"conditions": "ACV 3.0, GCV 1.5 μM or PCV 1.5 μM, 10 and 14 days (Example 2c)"}, "[8]": {"conditions": "GCV 1.5 μM or ACV 3.0 μM, 14 days (Example 2b)"}},
  "note": "Where a name gives a salt, the structure may show the parent alone.",
  "data": [
    {"smiles": "Nc1nc2c(ncn2CCC(CO)CO)c(=O)[nH]1", "note": "[PCV]", "values": [
      {"measurement": "telomere length, apoptosis and cell cycle distribution", "setting": "U-2 OS cells [1]; [7]", "result": "telomere shortening, massive apoptosis and G2 arrest"},
      {"measurement": "telomere length, apoptosis and cell cycle distribution", "setting": "HeLa cells [2]; [7]", "result": "telomere shortening, massive apoptosis and G2 arrest"}
    ]},
    {"smiles": "Nc1ncnc2c1ncn2COC(CO)CO", "note": "[SN4, 9-[(1,3-Dihydroxy-2-propoxy)methyl]-adenine]", "values": [
      {"measurement": "IC50 at 2 days", "setting": "[3]", "result": "> 1000", "unit": "µg/mL"}
    ]},
    {"smiles": "Cc1cn(COCCOC(=O)[C@@H](N)C(C)C)c(=O)[nH]c1=O", "note": "[VSN1, 2-[(5-Methyluracil-1-yl)methoxy]-ethyl L-valinate hydrochloride monohydrate]", "values": [
      {"measurement": "IC50 at 2 days", "setting": "[3]", "result": "> 1000", "unit": "µg/mL"}
    ]},
    {"smiles": "Nc1nc2c(ncn2COCCO)c(=O)[nH]1", "note": "[ACV, 9-[2(hydromethoxy)-methyl]guanine]", "values": [
      {"measurement": "telomere length, apoptosis and cell cycle distribution", "setting": "U-2 OS cells [1]; [7]", "result": "telomere shortening, massive apoptosis and G2 arrest"},
      {"measurement": "telomere length, apoptosis and cell cycle distribution", "setting": "HeLa cells [2]; [7]", "result": "telomere shortening, massive apoptosis and G2 arrest"},
      {"measurement": "telomere length, apoptosis and cell cycle distribution", "setting": "HeLa cells [2]; [8]", "result": "telomere shortening, massive apoptosis and G2 arrest"},
      {"measurement": "telomere length, apoptosis and cell cycle distribution", "setting": "NuTu-19 cells", "result": "telomere shortening, massive apoptosis and G2 arrest"}
    ]},
    {"smiles": "Nc1ncnc2c1ncn2COCCO", "note": "[SN2, 9-[(2-Hydroxyethoxy)methyl]-adenine]", "values": [
      {"measurement": "telomere length, apoptosis and cell cycle distribution", "setting": "HeLa cells [2]; SN 1 or SN 2 1.5 μM, 14 days", "result": "telomere shortening, massive apoptosis and G2 arrest"},
      {"measurement": "IC50 at 2 days", "setting": "[3]", "result": 750, "unit": "µg/mL"}
    ]},
    {"smiles": "Cc1cn(COCCO)c(=O)[nH]c1=O", "note": "[SN1, 1-[(2-Hydroxyethoxy)methyl]-5-methyluracil]", "values": [
      {"measurement": "telomere length, apoptosis and cell cycle distribution", "setting": "HeLa cells [2]; SN 1 or SN 2 1.5 μM, 14 days", "result": "telomere shortening, massive apoptosis and G2 arrest"},
      {"measurement": "IC50 at 2 days", "setting": "[3]", "result": 750, "unit": "µg/mL"}
    ]},
    {"smiles": "Nc1nc(O)c2ncn(COC(CO)CO)c2n1", "note": "[GCV]", "values": [
      {"measurement": "telomere length, apoptosis and cell cycle distribution", "setting": "U-2 OS cells [1]; [7]", "result": "telomere shortening, massive apoptosis and G2 arrest"},
      {"measurement": "telomere length, apoptosis and cell cycle distribution", "setting": "U-2 OS cells [1]; GCV 0.3 μg/ml, 14 days", "result": "telomere shortening, massive apoptosis programmed cell death) and G2 arrest"},
      {"measurement": "telomere length, apoptosis and cell cycle distribution", "setting": "HeLa cells [2]; [7]", "result": "telomere shortening, massive apoptosis and G2 arrest"},
      {"measurement": "telomere length, apoptosis and cell cycle distribution", "setting": "HeLa cells [2]; [8]", "result": "telomere shortening, massive apoptosis and G2 arrest"},
      {"measurement": "telomere length, apoptosis and cell cycle distribution", "setting": "NuTu-19 cells", "result": "telomere shortening, massive apoptosis and G2 arrest"},
      {"measurement": "telomere length, cell cycle and apoptosis", "setting": "U-2 OS cells [4]", "result": "telomere shortening, G2 arrest and massive apoptosis"},
      {"measurement": "telomere length, cell cycle and apoptosis", "setting": "[5]", "result": "telomere shortening, G2 arrest and massive apoptosis"}
    ]},
    {"smiles": "Cc1cn(COC(CO)CO)c(=O)[nH]c1=O", "note": "[SN3, 1-[(1,3-Dihydroxy-2-propoxy)methyl]-5-methyluracil]", "values": [
      {"measurement": "IC50 at 2 days", "setting": "[3]", "result": "> 1000", "unit": "µg/mL"},
      {"measurement": "melting point", "result": "156 to 157", "unit": "°C"}
    ]},
    {"smiles": "CC(C)[C@H](N)C(=O)OCC(CO)OCn1cnc2c(=O)nc(N)[nH]c21", "note": "(stereo partly drawn) [Valcyte®]", "values": [
      {"measurement": "tumor growth in the other treated mice", "setting": "HeLa cells [6]", "result": "slowing of tumor growth"},
      {"measurement": "tumor development", "setting": "HeLa cells [6]; about 14 days", "result": "All mice in control and treated groups had developed tumors"},
      {"measurement": "mice in which the tumor regressed and was eliminated by monotherapy", "setting": "HeLa cells [6]; by about day 30", "result": "one"}
    ]}
  ]
}
